This is an account of results in PubChem BioAssay AID180 (DTP/NCI, 2004).

The test system of this assay is BDF1 mice, Adenocarcinoma 755 s.c., tumor weight T/C. Description: NCI In Vivo Anticancer Drug Screen. Data for tumor model Adenocarcinoma 755 (subcutaneous) in B6D2F1 (BDF1) mice. The note with it: endpoint: mean tumor weight, higher = larger tumour. A digest of the protocol: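 Readout: T/C, i.e. treated-group measurement over vehicle-control measurement. Endpoint is survival or tumor size in tumor-bearing mice given compound.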

The mark [1] stands for this setting: dose: 25.0 mg/kg/injection, schedule: Q01DX011 (ip), vehicle: carboxymethylcellulose (CMC).
Where [2] appears, read: dose: 75.0 mg/kg/injection, schedule: Q01DX011 (ip), vehicle: carboxymethylcellulose (CMC).
Setting [3] is: dose: 50.0 mg/kg/injection, schedule: Q01DX011 (ip), vehicle: carboxymethylcellulose (CMC).
[4] abbreviates: dose: 30.0 mg/kg/injection, schedule: Q01DX011 (ip), vehicle: carboxymethylcellulose (CMC).

Each structure is given as a SMILES string. Where “and” joins values, the source holds several entries; their conditions need not be identical. Equal entries are not always repeated.

Usually T/C stands for the ratio of treated to control. In the case of `O=C1NC(=O)C2(CCCc3ccc(N(CCCl)CCCl)cc32)N1` (stereo not drawn), the T/C was 86 % of control (dose: 3.5 mg/kg/injection, schedule: Q01DX011 (ip), vehicle: carboxymethylcellulose (CMC)); 80 % of control (dose: 3.5 mg/kg/injection, schedule: Q01DX011 (ip), vehicle: other); 83 % of control (dose: 7.0 mg/kg/injection, schedule: Q01DX011 (ip), vehicle: carboxymethylcellulose (CMC)); 112 % of control (dose: 7.0 mg/kg/injection, schedule: Q01DX011 (ip), vehicle: other); 56 % of control (dose: 14.0 mg/kg/injection, schedule: Q01DX011 (ip), vehicle: carboxymethylcellulose (CMC)); 51 % of control (dose: 14.0 mg/kg/injection, schedule: Q01DX011 (ip), vehicle: other). Also, the T/C is 30 % of control (dose: 28.0 mg/kg/injection, schedule: Q01DX011 (ip), vehicle: carboxymethylcellulose (CMC)); 56 % of control (dose: 28.0 mg/kg/injection, schedule: Q01DX011 (ip), vehicle: other); 2 % of control (dose: 55.0 mg/kg/injection, schedule: Q01DX011 (ip), vehicle: carboxymethylcellulose (CMC)); 13 % of control (dose: 55.0 mg/kg/injection, schedule: Q01DX011 (ip), vehicle: other).

Regarding `CCCCCn1cnc2c(=S)nc(N)[nH]c21`, the T/C was 112 % of control (dose: 3.1 mg/kg/injection, schedule: Q01DX011 (ip), vehicle: carboxymethylcellulose (CMC)); 76 % of control (dose: 6.2 mg/kg/injection, schedule: Q01DX011 (ip), vehicle: carboxymethylcellulose (CMC)); 28 % of control (dose: 12.5 mg/kg/injection, schedule: Q01DX011 (ip), vehicle: carboxymethylcellulose (CMC)); 10 % of control under setting [1]; 2 % of control under setting [2].

For `Nc1nc(I)c2[nH]cnc2n1`, the T/C reads like this: (dose: 15.0 mg/kg/injection, schedule: Q01DX011 (ip), vehicle: methylcellulose (MC)) 52 % of control; (dose: 30.0 mg/kg/injection, schedule: Q01DX011 (ip), vehicle: methylcellulose (MC)) 109 % of control; (dose: 60.0 mg/kg/injection, schedule: Q01DX011 (ip), vehicle: methylcellulose (MC)) 41 % of control; (dose: 120.0 mg/kg/injection, schedule: Q01DX011 (ip), vehicle: methylcellulose (MC)) 44 % of control.

With `Cn1c(N)c(N=O)c(=O)n(C)c1=O`, the T/C by setting is: (dose: 175.0 mg/kg/injection, schedule: Q01DX011 (oral), vehicle: other) 99 % of control; (dose: 250.0 mg/kg/injection, schedule: Q01DX011 (ip), vehicle: carboxymethylcellulose (CMC)) 81 % of control; (dose: 350.0 mg/kg/injection, schedule: Q01DX011 (ip), vehicle: carboxymethylcellulose (CMC)) 28 % of control; (dose: 350.0 mg/kg/injection, schedule: Q01DX011 (oral), vehicle: other) 80 % of control; (dose: 1400.0 mg/kg/injection, schedule: Q01DX011 (oral), vehicle: methylcellulose (MC)) 105 % of control; (dose: 2000.0 mg/kg/injection, schedule: Q01DX011 (oral), vehicle: other) 74 % of control. In addition, where the note is “dose: 2800.0 mg/kg/injection, schedule: Q01DX011 (oral), vehicle: other”, the T/C was 118 % of control.

On to `Nc1n[nH]c(N)n1`, for which the T/C is 55 % of control (dose: 300.0 mg/kg/injection, schedule: Q01DX011 (ip), vehicle: methylcellulose (MC)); 58 % of control (dose: 400.0 mg/kg/injection, schedule: Q01DX011 (ip), vehicle: methylcellulose (MC)); 44 % of control (dose: 500.0 mg/kg/injection, schedule: Q01DX011 (ip), vehicle: methylcellulose (MC)).

Consider `Fc1ccccc1CSc1ncnc2c1ncn2C1CCCO1` (stereo not drawn), for which the T/C runs as follows: (dose: 3.4 mg/kg/injection, schedule: Q01DX011 (ip), vehicle: methylcellulose (MC)) 82 % of control; (dose: 6.75 mg/kg/injection, schedule: Q01DX011 (ip), vehicle: methylcellulose (MC)) 96 % of control; (dose: 12.5 mg/kg/injection, schedule: Q01DX011 (ip), vehicle: methylcellulose (MC)) 26 % of control; (dose: 25.0 mg/kg/injection, schedule: Q01DX011 (ip), vehicle: methylcellulose (MC)) 1 % of control and 15 % of control; (dose: 50.0 mg/kg/injection, schedule: Q01DX011 (ip), vehicle: methylcellulose (MC)) 1 % of control.

On to `Cc1cnc2nc(N)nc(N)c2n1`, for which the T/C was 67 % of control under setting [3] and 33 % of control under setting [2].

As to `CCC(C)Cn1cnc2c(SCc3ccccc3)nc(N)nc21` (stereo not drawn), the T/C is 68 % of control (dose: 37.5 mg/kg/injection, schedule: Q01DX011 (ip), vehicle: carboxymethylcellulose (CMC)); 32 % of control under setting [2]; 21 % of control (dose: 150.0 mg/kg/injection, schedule: Q01DX011 (ip), vehicle: carboxymethylcellulose (CMC)); 13 % of control (dose: 300.0 mg/kg/injection, schedule: Q01DX011 (ip), vehicle: carboxymethylcellulose (CMC)).

As to `CCCNc1cc(=O)[nH]c(N)n1`, the T/C (dose: 55.0 mg/kg/injection, schedule: Q01DX011 (ip), vehicle: methylcellulose (MC)) is 110 % of control and the T/C (dose: 165.0 mg/kg/injection, schedule: Q01DX011 (ip), vehicle: methylcellulose (MC)) is 41 % of control.

On to `CC1CN1P(=S)(N1CCCCC1)N1CC1C` (stereo not drawn), for which the T/C was 51 % of control under setting [1]; 150 % of control under setting [3]; 64 % of control (dose: 56.0 mg/kg/injection, schedule: Q01DX011 (ip), vehicle: carboxymethylcellulose (CMC)); 121 % of control (dose: 100.0 mg/kg/injection, schedule: Q01DX011 (ip), vehicle: carboxymethylcellulose (CMC)); 19 % of control (dose: 112.0 mg/kg/injection, schedule: Q01DX011 (ip), vehicle: carboxymethylcellulose (CMC)); 102 % of control (dose: 200.0 mg/kg/injection, schedule: Q01DX011 (ip), vehicle: carboxymethylcellulose (CMC)).

For the compound `CSc1nc2c(=O)[nH]c(N)nc2n1C1OC(CO)C(O)C1O` (stereo not drawn), the T/C reads like this: under setting [4], 88 % of control; (dose: 60.0 mg/kg/injection, schedule: Q01DX011 (ip), vehicle: carboxymethylcellulose (CMC)) 98 % of control; (dose: 120.0 mg/kg/injection, schedule: Q01DX011 (ip), vehicle: carboxymethylcellulose (CMC)) 91 % of control; (dose: 240.0 mg/kg/injection, schedule: Q01DX011 (ip), vehicle: carboxymethylcellulose (CMC)) 47 % of control.

Regarding `ClCCN(CCCl)c1ccc(/C=C\c2ccnc3ccccc23)cc1`, the T/C by setting is: under setting [4], 65 % of control and 75 % of control; (dose: 115.0 mg/kg/injection, schedule: Q01DX011 (ip), vehicle: carboxymethylcellulose (CMC)) 47 % of control and 69 % of control; (dose: 230.0 mg/kg/injection, schedule: Q01DX011 (ip), vehicle: carboxymethylcellulose (CMC)) 71 % of control.

In the case of `CCCNS(=O)(=O)c1ncnc2nc[nH]c12`, the T/C is, setting by setting: (dose: 9.0 mg/kg/injection, schedule: Q01DX011 (ip), vehicle: carboxymethylcellulose (CMC)) 52 % of control; (dose: 18.0 mg/kg/injection, schedule: Q01DX011 (ip), vehicle: carboxymethylcellulose (CMC)) 17 % of control; (dose: 37.0 mg/kg/injection, schedule: Q01DX011 (ip), vehicle: carboxymethylcellulose (CMC)) 3 % of control.

Consider `Cn1cnc2c(ncn2C2CC(O)C(CO)O2)c1=O` (stereo not drawn), for which the T/C runs as follows: (dose: 120.0 mg/kg/injection, schedule: Q01DX011 (ip), vehicle: saline) 105 % of control; (dose: 240.0 mg/kg/injection, schedule: Q01DX011 (ip), vehicle: saline) 98 % of control.

Consider `O=S(=O)(Nc1ccccc1)c1ccc(C2CC3(Cl)C(Cl)=C(Cl)C2(Cl)C3(Cl)Cl)cc1` (stereo not drawn), for which the T/C is, setting by setting: (dose: 28.12 mg/kg/injection, schedule: Q01DX011 (ip), vehicle: methylcellulose (MC)) 90 % of control and 109 % of control; (dose: 112.5 mg/kg/injection, schedule: Q01DX011 (ip), vehicle: methylcellulose (MC)) 95 % of control and 107 % of control; (dose: 225.0 mg/kg/injection, schedule: Q01DX011 (ip), vehicle: methylcellulose (MC)) 69 % of control.
